Structures can show the parent of a compound that is named as a salt.
Legend:
[1] = Measurement of partition coefficient (logP) by UV-Vis spectrophotometry; type: physicochemical; conditions: 1-octanol / phosphate buffer 0.1 M pH 7.4; mean of triplicate determinations
Excerpt: Lipophilicity is a relevant property to estimate the bioavailability and dispersion of a molecule in non-aqueous media (oils, fats, and emulsions) and in the cellular environment. Generally, it can be related to logP, a parameter that evaluates the partition of a molecule between two immiscible solvents (water and 1-octanol). […] As already reported in the literature, the lipophilic character increased from hydroxytyrosol 6 to homovanillyl alcohol 5 and tyrosol 4.
The logP value of all compounds was determined as reported in the literature by UV-Vis spectrophotometry. The partition coefficient (logP) was calculated according to the following relationship: logP = logAx/(A0 − Ax). A0 was the maximum of absorbance of a solution 0.15 mM of each compound dissolved in 1-octanol; Ax is the maximum of absorbance of the organic solution containing the compound after separation from the phosphate buffer (0.1 M, pH 7.4) solution. A solution of 1-octanol saturated with the buffer was used as a blank.

ABTS assay (TEAC) = conditions: for Trolox Equivalent Antioxidant Capacity (TEAC): ethanol, room temperature, 734 nm, 2 min, extrapolated at 10 μM, Trolox mM equivalent
Experimental: The antioxidant capacity of compounds 1–12 was measured according to the method of Pellegrini et al. but working at room temperature. 6-Hydroxy-2,5,7,8-tetramethylchroman-2-carboxylic acid (Trolox) was used as reference. The analyses were carried out in ethanol (0.2% of water) at room temperature and the absorbance was measured at λ = 734 nm. Each sample (1.0 mL) of ABTS^+• was obtained from the aqueous mother solution by dilution with ethanol to an absorbance of […], and 10 μL of the ethanol solution of the antioxidant was added. All compounds were analyzed at four different final concentrations ranging from 1 to 10 μM. The absorbance was measured after 2 min. Four measurements were recorded for each concentration. Each time blanks of pure solvent were run. The standard deviations of data were all below 5%. The dose-response curves were expressed as the percentage of absorbance decrease (ABTS inhibition expressed as percentage) against the amount of antioxidant concentration. Linear regression was conducted using GraphPad Prism 4.01 (2004) software. The antioxidant capacities were extrapolated at 10 μM concentration and reported as Trolox Equivalent Antioxidant Capacity (TEAC), defined as the concentration (mmol/L) of Trolox having the antioxidant capacity equivalent to that of a 1.0 mmol/L solution of the substance under investigation. Results are expressed as mean ± standard deviation. Statistical analyses were performed using the Student’s t test. The level of significance was p < 0.05 for all data.

[2] = test system: THP-1 human leukemic monocytes; assay: Intracellular ROS determination (DCF assay) in THP-1 monocytes; type: cell-based; conditions: 10 min, THP-1 cells, compound 10 µM, 200 µM cumene hydroperoxide, ΔF/10 min, read-out: Intracellular ROS, DCF fluorescence (Mean) relative to cumene hydroperoxide alone (100%)
Experimental: (§1) The fluorometric DCF assay is a useful technique to evaluate the antioxidant activity of compounds in cells exposed to oxidative stress induced by cumene hydroperoxide. The analyses were carried out in two different cell lines particularly sensitive to radical production: L6 myoblasts from rat skeletal muscle and THP-1 human leukemic monocytes.
(§2) The antioxidant activity of each compound was measured by a standard intracellular fluorescent probe (DCF) assay using L6 myoblasts and THP-1 monocytes exposed to oxidative stress by the addition of cumene hydroperoxide, a radical generator. Fluorescence was measured over a 10-min period, and the ability of the compounds to eliminate the increased ROS production was determined. For L6 myoblasts, growing attached to the bottom of the flask, the medium was discarded and cells were washed twice with 5 mL phosphate buffered saline (PBS) containing 5.0 mM glucose (PBS-glucose) at 37 °C. Cells were gently scraped off with PBS-glucose at 37 °C and centrifuged at 1200 rpm for 5 min (approximately 100× g). The supernatant was discarded and the pellet resuspended in PBS-glucose. Incubation with the probe DCFH2-DA at a final concentration of 10 µM (from a stock solution of 10 mM in DMSO) was carried out for 30 min at 37 °C in the dark. At the end of the incubation, cells were washed twice, centrifuged at 1200 rpm for 5 min, and the final cell pellet was resuspended in PBS-glucose. Before the experiment was initiated, cells were allowed to recover for 1 h at room temperature in the dark. The THP-1 monocytes, growing in suspension, were centrifuged at 1200 rpm for 10 min. The supernatant was discarded, and cells were washed twice with 5 mL PBS-glucose at 37 °C to remove the serum. The pellet was successively resuspended in PBS-glucose, and the probe DCFH2-DA was added at 10 µM final concentration. From that point onwards, the protocols for the two cell types were identical. Intracellular fluorescence was measured at 37 °C using a Perkin Elmer VICTOR 3V spectrofluorometer (excitation at λ = 498 nm and emission at λ = 530 nm). […] Cells were incubated with compounds at the final designated concentration for 10 min at 37 °C before addition of the radical generator. The decrease in the intracellular DCF fluorescence relative to the fluorescence change induced by 200 μM cumene hydroperoxide alone (100%), reported as ΔF/10 min, determined the antioxidant activities. Data are reported as the mean ± standard deviation of at least four different experiments carried out in triplicate. One-way ANOVA test (non-parametric) and Bonferroni post-test (comparing all pairs of columns) were used for the statistical analyses.

L6 myoblasts = assay: Intracellular ROS determination (DCF assay) in L6 myoblasts; type: cell-based, rat; conditions: for activity at 10 µM: Rattus norvegicus, L6, 10 min, L-6 cells, compound 10 µM, 200 µM cumene hydroperoxide, ΔF/10 min, read-out: Intracellular ROS, DCF fluorescence (Mean) relative to cumene hydroperoxide alone (100%); for antioxidant activity in cells, DCF assay: L6 and THP-1 cells
Experimental: as §1, §2

L6 cells = assay: Proliferation curves (cell counts) in L6 cells; type: cell-based, rat; conditions: 10 µM, absence or presence of cumene hydroperoxide 40 µM
Experimental: (§3) L6 cells were seeded in 60 × 15 mm Petri dishes in 4 mL of the complete growth medium at a density of approximately 10^5 cells/well. The following day, the cells were exposed to the selected compounds 1, 5–7, 11, and 12 at a final concentration of 10 µM in the absence and presence of cumene hydroperoxide (40 µM). Cell counts using a Neubauer chamber were made every 24 h up to confluence. Each time the L6 myoblasts had to be counted, they first underwent a mild trypsinization. THP-1 cells were seeded in 24-well plates in 1 mL of the growth medium. After 24 h, the cells were exposed to 10 µM of the same compounds in the absence and presence of cumene hydroperoxide (200 µM) and incubated for an additional 24 h. Cell counts using a Neubauer chamber were made every 24 h up to confluence. The results are given as the mean ± standard deviation of two different experiments.

THP-1 cells = assay: Proliferation curves (cell counts) in THP-1 cells; type: cell-based, human; conditions: 10 µM, absence or presence of cumene hydroperoxide 200 µM
Experimental: as §3

SMILES	logP [1]	Trolox Equivalent Antioxidant Capacity (TEAC) (ABTS assay (TEAC)) [mM]	activity at 10 µM [2] [%]	activity at 10 µM (L6 myoblasts) [%]	antiradical activity / antioxidant capacity in ABTS assay (ABTS assay (TEAC))	effect on cell proliferation (cell counts) (L6 cells)	effect on cell proliferation (cell counts) (THP-1 cells)	antioxidant activity in cells, DCF assay (L6 myoblasts)
OCCc1cccc(O)c1 [Compound 3, 3-hydroxyphenethyl alcohol]	0.66 ± 0.06	0.43	23	25				
O=C(OCCc1cccc(O)c1)C(F)(F)F [Compound 9, 3-Hydroxyphenethyl trifluoroacetate]	1.96 ± 0.14	0.38	28	25				
OCCc1ccc(O)c(O)c1 [Compound 6, 3,4-dihydroxyphenethyl alcohol]	0.1 ± 0.01	0.68	14	7	good antioxidant capacity			
COc1cc(CCO)ccc1O [Compound 5, 4-hydroxy-3-methoxyphenethyl alcohol]	0.46 ± 0.02	0.81	21	22	good antioxidant capacity	promoted L6 myoblast proliferation	inhibited THP-1 tumor cell growth	
O=C(OCCc1ccc(O)cc1)C(F)(F)F [Compound 10, 4-Hydroxyphenethyl trifluoroacetate]	1.98 ± 0.14	0.36	20	21				
O=C(OCCc1ccc(O)c(O)c1)C(F)(F)F [Compound 12, 3,4-Dihydroxyphenethyl trifluoroacetate]	1.62 ± 0.12	0.77	16	4	good antioxidant capacity			
OCCc1ccc(O)cc1 [Compound 4, 4-hydroxyphenethyl alcohol]	0.69 ± 0.05	0.45	25	41				
COc1cc(CCOC(=O)C(F)(F)F)ccc1O [Compound 11, 4-Hydroxy-3-methoxyphenethyl trifluoroacetate]	1.9 ± 0.12	0.87	23	20	good antioxidant capacity			
O=C(OCCc1ccccc1)C(F)(F)F [Compound 7, Phenethyl trifluoroacetate]	2.38 ± 0.18	0.00	30	29	very low antiradical activity			good antioxidant activity
OCCc1ccccc1O [Compound 2, 2-hydroxyphenethyl alcohol]	0.72 ± 0.07	0.69	25	23	good antioxidant capacity			
O=C(OCCc1ccccc1O)C(F)(F)F [Compound 8, 2-Hydroxyphenethyl trifluoroacetate]	2.05 ± 0.16	0.75	25	26	good antioxidant capacity			
OCCc1ccccc1 [Compound 1, phenethyl alcohol]		0.00	33	31	very low antiradical activity			good antioxidant activity
Cc1c(C)c2c(c(C)c1O)CCC(C)(C(=O)O)O2 (stereo not drawn) [Trolox, 6-Hydroxy-2,5,7,8-tetramethylchroman-2-carboxylic acid]		1.00						

From paper PMC6017616, “Synthesis and Evaluation of the Antioxidant Activity of Lipophilic Phenethyl Trifluoroacetate Esters by In Vitro ABTS, DPPH and in Cell-Culture DCF Assays” (Molecules : A Journal of Synthetic Chemistry and Natural …, 2018)
